Structures are written as SMILES. Counter-ions that a name gives are not always drawn. Like-named read-outs stand apart in the source and are kept apart here.

Here are results for 1 compound from patent publication US20230372327A1, “PHARMACEUTICAL COMPOSITION BASED ON […]/OR ITS SALTS FOR NASAL ADMINISTRATION” (Pharmbiotest Poland Sp. z o. o., priority 2020, published 2023).

For data set [1] the following is noted: 12 volunteers.
Source text: The total number of healthy adult male subjects enrolled was twelve. Throughout the study, the conditions of their hospital stay, a dietary pattern, a water consumption regimen, a physical activity regimen for the volunteers were standardized. The clinical step of study consisted of a screening, two study periods, a washout period, and the final examination. The total duration of study, starting from the screening through the completion of study, was approximately three weeks with a seven-day wash-out period between medication administrations. Each study period was preceded by inpatient hospitalization in the evening of the previous day. The medications were dosed on Day 1 of each study period starting from 08:00 a.m. The subjects stayed in the centre for 24 hours after the administration of the medication under study in each study period. In each study period the following was done: the intake of the medications under study whose prescription was determined by a simple randomization method; blood sampling for the determination of active pharmaceutical ingredient concentration; the measurement of vital data such as blood pressure (BP), heart rate; and questionnaire survey of volunteers. […]
Another data set is described as follows: clinical. The note with it: male, human, plasma, other: intranasal (nasal spray), 10 mg.
For data set [2] the following is noted: printed: following nasal use (administration); prior-art compositions, strong first-pass effect; cited from earlier work.

Source text for clinical: The total number of healthy adult male subjects enrolled was twelve. Throughout the study, the conditions of their hospital stay, a dietary pattern, a water consumption regimen, a physical activity regimen for the volunteers were standardized. The clinical step of study consisted of a screening, two study periods, a washout period, and the final examination. The total duration of study, starting from the screening through the completion of study, was approximately three weeks with a seven-day wash-out period between medication administrations. Each study period was preceded by inpatient hospitalization in the evening of the previous day. […] In each study period the following was done: the intake of the medications under study whose prescription was determined by a simple randomization method; blood sampling for the determination of active pharmaceutical ingredient concentration; the measurement of vital data such as blood pressure (BP), heart rate; and questionnaire survey of volunteers.
Blood was sampled as follows: 0 hours, 15 min., 30 min., 45 min., 1 hour, 1 hour 30 min., 2 hours, 2 hours 30 min., 3 hours, 4 hours, 6 hours, 8 hours, 12 hours, and 24 hours post-dosing. […] The actual sampling time was recorded. […]
AUC(0-∞) is AUC0-t plus the extrapolated AUC from time t to infinity [ng×h/mL]. The extrapolation is calculated from the last measured concentration (Ct): AUC(0-∞)=AUC(0-t)+Ct/Kel. […]

For the compound `Oc1ccc2c3c1O[C@H]1[C@@H](O)CC[C@@]4(O)[C@@H](C2)N(CC2CCC2)CC[C@]314` [nalbuphine, (5α.6α)-17-(cyclobutylmethyl)-4.5epoxy-morphinan-3.6.14-triol hydrochloride], the adverse reactions recorded in data set [1] (after intramuscular administration of 10 mg of nalbuphine) worked out at 24 cases; in data set [1] (after intravenous administration of 10 mg of nalbuphine) it was 25 cases. Moreover, the bioavailability in the data set “clinical” worked out at 50%. Also, the bioavailability of nalbuphine in data set [2] is on record as 16.4 to 17.7%.
